ChEMBL document CHEMBL3272105, “Quantitative structure-activity studies on monoamine oxidase inhibitors” (J Med Chem, 1976)

Experiments:
[1] = Octanol-water partition coefficient, log P of the compound; type: physicochemical
[2] = tested on: Rattus norvegicus; assay: Ratio of compound to iproniazid for in vivo inhibition of monoamine oxidase in rat brain assessed as increase in serotonin production after 16 hrs; type: functional

CC(C)NNC(=O)c1cccs1
logP ([1]; read-out: logP): 1.61
Ratio [2]: 198

CC(C)NNC(=O)c1ccsc1
logP ([1]; read-out: logP): 1.61
Ratio [2]: 192

CC(C)NNC(=O)c1ccccn1
logP ([1]; read-out: logP): 0.32
Ratio [2]: 191

CC(C)NNC(=O)c1ccco1
Ratio [2]: 156

CC(C)NNC(=O)c1cnccn1
Ratio [2]: 152

CC(C)NNC(=O)c1ccc(Cl)cc1
logP ([1]; read-out: logP): 2.84
Ratio [2]: 134

CC(C)NNC(=O)c1cccc([N+](=O)[O-])c1
logP ([1]; read-out: logP): 1.85
Ratio [2]: 125

CC(C)NNC(=O)c1cccc(Cl)c1
logP ([1]; read-out: logP): 2.84
Ratio [2]: 123

CC(C)NNC(=O)c1cccnc1
logP ([1]; read-out: logP): 0.32
Ratio [2]: 111

CC(C)NNC(=O)c1ccc(C(C)C)cc1
logP ([1]; read-out: logP): 3.66
Ratio [2]: 97

CC(C)NNC(=O)c1cc[nH]n1
Ratio [2]: 84

Cc1ccc(C(=O)NNC(C)C)cc1C
logP ([1]; read-out: logP): 3.25
Ratio [2]: 76

COc1ccc(C(=O)NNC(C)C)cc1
logP ([1]; read-out: logP): 2.11
Ratio [2]: 63

CC(C)NNC(=O)c1ccccc1N
logP ([1]; read-out: logP): 0.9
Ratio [2]: 60

Cc1ncsc1C(=O)NNC(C)C
logP ([1]; read-out: logP): 0.44
Ratio [2]: 38

CC(C)NNC(=O)c1c[nH]nn1
Ratio [2]: 38

CC(C)NNC(=O)c1ccc(N)cc1
logP ([1]; read-out: logP): 0.9
Ratio [2]: 15

CC(C)NNC(=O)c1ccc(O)cc1
logP ([1]; read-out: logP): 1.46
Ratio [2]: 11

CC(C)NNC(=O)c1cccnn1
Ratio [2]: 0

CC(C)NNC(=O)c1ccccc1O
logP ([1]; read-out: logP): 1.46
Ratio [2]: 0

Cc1ncc(C(=O)NNC(C)C)c(C)n1
logP ([1]; read-out: logP): -0.4
Ratio [2]: 0

Cc1noc(C)c1C(=O)NNC(C)C
logP ([1]; read-out: logP): 1.2
Ratio [2]: 0

CC(C)NNC(=O)c1ccncc1 [IPRONIAZID]
logP [1]: 0.32
Ratio [2]: 100
